“Also recorded” adds a separate entry of the source.
Tests used:
Format in all cases: in vivo
[1] = test system: NPC1 (I1061T/I1061T) mice; assay: 27-HC treatment of NPC1 (I1061T/I1061T) mice by oral gavage
Description: FIG. 11. Impact of 27-HC Treatment on NPC1 (I1061T/I1061T) Mice. Kaplan-Meier lifespan analysis of NPC1 (I1061T/I1061T) mice treated with either 0 mg/kg (dashed line) or 5 mg/kg (solid line) 27-HC three times per week by oral gavage.
FIG. 13. Impact of 27-HC Treatment on Lipid Accumulation in Livers of Male and Female Mice. Comparing livers of wild-type vs. NPC1 (I1061T/I1061T) mice, lipid accumulations (black arrows) are apparent in NPC1 mutant mice but not wild-type mice. This is true and both males and females.
(§1) To test this idea, we treated either NPC1 mutant (null or I1061T) or StARD9 mutant (null or truncation mutant) cells with 27-HC in a cocktail that delivers it into the cytoplasm independent of receptor-mediated endocytosis. […] Next, we treated NPC1(−/−) mice with 27-HC by i.p. delivery.

[2] = test system: StARD9(−/−)/NPC1 (I1061T/I1061T) mice; assay: 27-HC treatment of mice mutant for both NPC1 and StARD9 / StARD9 knock-out mice; conditions: 5 mg/kg three times per week oral gavage; vs NPC1 (I1061T/I1061T) mice; p=0.0001
Description: FIG. 12. Impact of 27-HC Treatment on NPC1 (I1061T/I1061T)/StARD9 (−/−) Mice. Kaplan-Meier lifespan analysis of NPC1 (I1061T/I1061T) mice (solid line) to StARD9(−/−)/NPC1 (I1061T/I1061T) mice (dashed line) each treated with 5 mg/kg 27-HC three times per week by oral gavage.
Mutations in the NPC1 gene affect two independent lysosomal functions. The first is the generation of lysosomal tubules as a mechanism to deliver intracellular cholesterol to other membrane-bound compartments. Because this function is impaired in NPC disease, we investigated the protein components necessary for tubule projection. We identified 27-HC as a signaling molecule that stimulates lysosomal tubulation and is not provided properly to lysosomal membrane to elicit tubulation in NPC disease. To correct this defect, we provide pure 27-HC in a cocktail that bypasses endocytosis. […] We have also tested this therapy in two different transgenic strains of mice with NPC1 mutations. […] Because we know the molecular target for 27-HC (StARD9), we tested 27-HC treatment in mice where we removed the StARD9 gene. […] This confirms the molecular target for 27-HC treatment and is consistent with our proposed model for the defects in NPC disease. Independent of the role for NPC1 in lysosomal tubulation, NPC1 is the “receptor” for the pro-apoptotic protein STING. […]

NPC1(−/−) mice = assay: 27-HC treatment of NPC1(−/−) mice by intraperitoneal injection; conditions: i.p.
Description: FIG. 7A-C. Behavioral Analysis of NPC1(−/−) Mice Treated with 27-HC. NPC1(−/−) treated with 0 mg/kg (●) or 10 mg/kg (▴) 27-HC once per week by intraperitoneal injection were tested using (A) Tremor Scores p=0.01), (B) Rotarod Analysis (p=0.0037) or (C) Coathanger Tests (p=0.0229).
FIG. 8. Impact of 27-HC Treatment on NPC1 (−/−) Mice. Immunohistochemical staining of cerebella stained for calbindin after treatment with either Omg/kg or 10 mg·kg 27-HC once per week by intraperitoneal injection. Brown staining indicates Purkinje cell survival in lobes of the cerebellum (I, V, X).
FIG. 9A-C. Impact of 27-HC Treatment on NPC1 (−/−) Mice. Quantification of Purkinje cells preservation at days (A) P42, (B) P63 or (C) P77. Lobes are binned as I-V, VI-VII, VIII, or IX-X. A Student's t-test was calculated on total Purkinje cell counts from each timepoint (p-values).
FIG. 10. Impact of 27-HC Treatment on NPC1 (−/−) Mice. Kaplan-Meier lifespan analysis of NPC1 (−/−) mice treated with either 0 mg/kg (dashed line) or 10 mg/kg (solid line) 27-HC.
as §1

[3] = NPC1 (I1061T/I1061T) mice, oral gavage, vs vehicle alone

Compound: C[C@@H](CO)CCC[C@@H](C)[C@H]1CC[C@H]2[C@@H]3CC=C4C[C@@H](O)CC[C@]4(C)[C@H]3CC[C@]12C [27-HC, 27-hydroxycholesterol]
- Lifespan (Kaplan-Meier) ([1]; NPC1 (I1061T/I1061T) mice, 5 mg/kg vs 0 mg/kg three times per week oral gavage, p=0.0108): extended the lifespan of the mice; also recorded: Extension of lifespan was significant
- Lipid accumulation in livers ([1]; NPC1 (I1061T/I1061T) mice, males and females): successful in reducing these lipid accumulations
- Sex difference of treatment benefit ([1]; NPC1 (I1061T/I1061T) mice, oral gavage): worked better in males than females
- Onset of symptoms [1, 3]: delayed the onset of symptoms
- Severity of symptoms [1, 3]: reduced the severity of symptoms
- Dosage needed for reduction of liver lipid accumulations, females ([1]; female NPC1 (I1061T/I1061T) mice): 40 mg/kg
- Sufficiency of the highest dose used, livers ([1]; females compared to males): not sufficient in females compared to males
- Dosage needed for reduction of liver lipid accumulations, males ([1]; male NPC1 (I1061T/I1061T) mice): 10 mg/kg
- Benefit of 27-HC treatment (lifespan) in mice lacking StARD9 [2]: the benefit of the 27-HC treatment was lost; also recorded: significantly less effective; also recorded: does not provide any benefit
- Lifespan (Kaplan-Meier) (NPC1(−/−) mice; 10 mg/kg vs 0 mg/kg, p=0.0214): extended the lifespan of the mice; also recorded: Extension of lifespan was significant
- Onset of symptoms (NPC1(−/−) mice; vs vehicle alone): delayed the onset of symptoms
- Purkinje cell preservation (NPC1(−/−) mice; vs vehicle alone): preserved Purkinje cells
- Severity of symptoms (NPC1(−/−) mice; vs vehicle alone): reduced the severity of symptoms
